Test results from patent US6737383B1, “Herbicidal oxadiazolidines” (priority 1999, dated 2004).

Columns and labels:
cocklebur = assay: Test B pre/postemergence cocklebur; format: in vivo, Xanthium strumarium
Outline: (§1)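 Response is a visual 0-to-10 score relative to untreated plants, where 0 means no effect and 10 means complete control, taken twelve to sixteen days after application. Treatments went onto soil at planting and onto foliage of 1- to 4-leaf plants, using a surfactant-containing non-phytotoxic solvent.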

corn = assay: Test B pre/postemergence corn; format: in vivo, Zea mays
Outline: as §1

crabgrass = assay: Test B pre/postemergence crabgrass; format: in vivo, Digitaria sanguinalis
Outline: as §1

giant foxtail = assay: Test B pre/postemergence giant foxtail; format: in vivo, Setaria faberii
Outline: as §1

morningglory = assay: Test B pre/postemergence morningglory; format: in vivo, Ipomoea hederacea
Outline: as §1

pigweed = assay: Test B pre/postemergence pigweed; format: in vivo, Amaranthus retroflexus
Outline: as §1

rape = assay: Test B pre/postemergence rape; format: in vivo, Brassica napus
Outline: as §1

soybean = assay: Test B pre/postemergence soybean; format: in vivo, Glycine max
Outline: as §1

sugar beet = assay: Test B pre/postemergence sugar beet; format: in vivo, Beta vulgaris
Outline: as §1

velvetleaf = assay: Test B pre/postemergence velvetleaf; format: in vivo, Abutilon theophrasti
Outline: as §1

wheat = assay: Test B pre/postemergence wheat; format: in vivo, Triticum aestivum
Outline: as §1

wild oat = assay: Test B pre/postemergence wild oat; format: in vivo, Avena fatua
Outline: as §1

purple nutsedge = assay: Test B pre/postemergence purple nutsedge; format: in vivo, Cyperus rotundus
Outline: as §1

rice = assay: Test B flood test rice; format: in vivo, Oryza sativa
Outline: (§2)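 Read-out is a visual response score from 0 (no effect) to 10 (complete control), assigned by comparison with untreated controls. Treatment was applied at the 2-leaf stage, and plants stayed in the greenhouse for twelve to sixteen days before scoring.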

smallflower flatsedge = assay: Test B flood test smallflower flatsedge; format: in vivo, Cyperus difformis
Outline: as §2

duck salad = assay: Test B flood test duck salad; format: in vivo, Heteranthera limosa
Outline: as §2

[1] = Postemergence, Rate 31 g/ha, visual rating, scale 0 to 10 (0 no effect, 10 complete control)
[2] = Preemergence, Rate 31 g/ha, visual rating, scale 0 to 10 (0 no effect, 10 complete control)
[3] = Preemergence, Rate 62 g/ha, scale of 0 to 10 where 0 is no effect and 10 is complete control
[4] = Preemergence, Rate 250 g/ha, scale of 0 to 10 where 0 is no effect and 10 is complete control
[5] = Rate 62 g/ha, Postemergence, scale 0 to 10, 0 no effect, 10 complete control
[6] = Rate 125 g/ha, Postemergence, scale of 0 to 10 where 0 is no effect and 10 is complete control
[7] = Rate 250 g/ha, Postemergence, scale of 0 to 10 where 0 is no effect and 10 is complete control
[8] = Rate 31 g/ha, Pre-emergence section (flood test species), scale 0 to 10
[9] = Rate 62 g/ha, headed Pre-emergence (flood test species), scale 0 to 10 (0 no effect, 10 complete control)
[10] = Rate 125 g/ha, Pre-emergence, flood test species, scale 0 to 10 where 0 is no effect and 10 is complete control
[11] = Rate 250 g/ha, Pre-emergence, flood-test species, scale 0 to 10, 0 is no effect, 10 is complete control

COCC(C)N(C(=O)n1oc(=O)n(-c2ccccc2C)c1=O)c1ccc(F)cc1 (centres unmarked) [Compound 324]
Cocklebur plant response rating (cocklebur; [1]): 0
Cocklebur plant response rating (cocklebur; [2]): 0
Cocklebur plant response rating (cocklebur; [3]): 0
Cocklebur plant response rating (0 to 10 scale) (cocklebur; Preemergence, Rate 125 g/ha): 0
Cocklebur plant response rating (cocklebur; [4]): 0
Cocklebur plant response rating (cocklebur; [5]): 0
Cocklebur plant response rating (cocklebur; [6]): 0
Plant response rating, Cocklebur (cocklebur; [7]): 2
Corn plant response rating (corn; [1]): 0
Corn plant response rating (corn; [2]): 0
Corn plant response rating (corn; [3]): 0
Corn plant response rating (0 to 10 scale) (corn; Preemergence, Rate 125 g/ha): 0
Corn plant response rating (corn; [4]): 0
Corn plant response rating (corn; [5]): 0
Corn plant response rating (corn; [6]): 0
Plant response rating, Corn (corn; [7]): 0
Crabgrass plant response rating (crabgrass; [1]): 0
Crabgrass plant response rating (crabgrass; [2]): 0
Crabgrass plant response rating (crabgrass; [3]): 0
Crabgrass plant response rating (0 to 10 scale) (crabgrass; Preemergence, Rate 125 g/ha): 0
Crabgrass plant response rating (crabgrass; [4]): 0
Crabgrass plant response rating (crabgrass; [5]): 0
Crabgrass plant response rating (crabgrass; [6]): 0
Plant response rating, Crabgrass (crabgrass; [7]): 0
Giant foxtail plant response rating (giant foxtail; [1]): 0
Giant foxtail plant response rating (giant foxtail; [2]): 0
Giant foxtail plant response rating (giant foxtail; [3]): 0
Giant foxtail plant response rating (0 to 10 scale) (giant foxtail; Preemergence, Rate 125 g/ha): 0
Giant foxtail plant response rating (giant foxtail; [4]): 0
Giant foxtail plant response rating (giant foxtail; [5]): 0
Giant foxtail plant response rating (giant foxtail; [6]): 0
Plant response rating, Giant foxtail (giant foxtail; [7]): 0
Morningglory plant response rating (morningglory; [1]): 0
Morningglory plant response rating (morningglory; [3]): 0
Morningglory plant response rating (0 to 10 scale) (morningglory; Preemergence, Rate 125 g/ha): 0
Morningglory plant response rating (morningglory; [4]): 0
Morningglory plant response rating (morningglory; [5]): 0
Morningglory plant response rating (morningglory; [6]): 0
Plant response rating, Morningglory (morningglory; [7]): 0
Redroot pigweed plant response rating (pigweed; [1]): 0
Redroot pigweed plant response rating (pigweed; [3]): 0
Redroot pigweed plant response rating (0 to 10 scale) (pigweed; Preemergence, Rate 125 g/ha): 0
Redroot pigweed plant response rating (pigweed; [4]): 0
Redroot pigweed plant response rating (pigweed; [5]): 0
Redroot pigweed plant response rating (pigweed; [6]): 0
Plant response rating, Redroot pigweed (pigweed; [7]): 0
Rape plant response rating (rape; [1]): 0
Rape plant response rating (rape; [3]): 0
Rape plant response rating (0 to 10 scale) (rape; Preemergence, Rate 125 g/ha): 0
Rape plant response rating (rape; [4]): 0
Rape plant response rating (rape; [5]): 0
Rape plant response rating (rape; [6]): 0
Plant response rating, Rape (rape; [7]): 0
Soybean plant response rating (soybean; [1]): 0
Soybean plant response rating (soybean; [3]): 0
Soybean plant response rating (0 to 10 scale) (soybean; Preemergence, Rate 125 g/ha): 0
Soybean plant response rating (soybean; [4]): 0
Soybean plant response rating (soybean; [5]): 0
Soybean plant response rating (soybean; [6]): 1
Plant response rating, Soybean (soybean; [7]): 1
Sugarbeets plant response rating (sugar beet; [1]): 0
Sugarbeets plant response rating (sugar beet; [3]): 0
Sugarbeets plant response rating (0 to 10 scale) (sugar beet; Preemergence, Rate 125 g/ha): 0
Sugarbeets plant response rating (sugar beet; [4]): 0
Sugarbeets plant response rating (sugar beet; [5]): 0
Sugarbeets plant response rating (sugar beet; [6]): 0
Plant response rating, Sugarbeets (sugar beet; [7]): 0
Velvetleaf plant response rating (velvetleaf; [1]): 0
Velvetleaf plant response rating (velvetleaf; [3]): 0
Velvetleaf plant response rating (0 to 10 scale) (velvetleaf; Preemergence, Rate 125 g/ha): 0
Velvetleaf plant response rating (velvetleaf; [4]): 0
Velvetleaf plant response rating (velvetleaf; [5]): 0
Velvetleaf plant response rating (velvetleaf; [6]): 0
Plant response rating, Velvetleaf (velvetleaf; [7]): 0
Wheat plant response rating (wheat; [1]): 0
Wheat plant response rating (wheat; [3]): 0
Wheat plant response rating (0 to 10 scale) (wheat; Preemergence, Rate 125 g/ha): 0
Wheat plant response rating (wheat; [4]): 0
Wheat plant response rating (wheat; [5]): 0
Wheat plant response rating (wheat; [6]): 0
Plant response rating, Wheat (wheat; [7]): 0
Wild oats plant response rating (wild oat; [1]): 0
Wild oats plant response rating (wild oat; [3]): 0
Wild oats plant response rating (0 to 10 scale) (wild oat; Preemergence, Rate 125 g/ha): 0
Wild oats plant response rating (wild oat; [4]): 0
Wild oats plant response rating (wild oat; [5]): 0
Wild oats plant response rating (wild oat; [6]): 0
Plant response rating, Wild oats (wild oat; [7]): 0
Nutsedge plant response rating (purple nutsedge; [1]): 0
Nutsedge plant response rating (purple nutsedge; [3]): 0
Nutsedge plant response rating (0 to 10 scale) (purple nutsedge; Preemergence, Rate 125 g/ha): 0
Nutsedge plant response rating (purple nutsedge; [4]): 0
Nutsedge plant response rating (purple nutsedge; [5]): 0
Nutsedge plant response rating (purple nutsedge; [6]): 0
Plant response rating, Nutsedge (purple nutsedge; [7]): 0
Rice plant response rating (rice; [8]): 0
Rice plant response rating (rice; [9]): 0
Rice plant response rating (rice; [10]): 0
Rice plant response rating (rice; [11]): 0
S. Flatsedge plant response rating (smallflower flatsedge; [8]): 0
S. Flatsedge plant response rating (smallflower flatsedge; [9]): 0
S. Flatsedge plant response rating (smallflower flatsedge; [10]): 0
S. Flatsedge plant response rating (smallflower flatsedge; [11]): 0
Ducksalad plant response rating (duck salad; [8]): 0
Ducksalad plant response rating (duck salad; [9]): 0
Ducksalad plant response rating (duck salad; [10]): 0
Ducksalad plant response rating (duck salad; [11]): 0
